Test results published in ChEMBL document CHEMBL1201862, “PubChem BioAssay data set” (2004).
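Tested at 5 concentrations; 48 h exposure; 96-well plates; endpoints linearly interpolated, else capped at highest concentration. GI50 marks 50% less growth.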 Activity calls are given as the source filed them. Cut-off read from the data, not from the text of the source: active = GI50 up to about 1.1 µM and inactive = higher.

Legend:
Test in all cases: growth of human tumour cells (NCI), 48 h
SF-539 = tested on: SF-539
TK-10 = tested on: TK-10
SR = tested on: SR
HOP-62 = tested on: HOP-62
SN12C = tested on: SN12C
OVCAR-8 = tested on: OVCAR-8
KM12 = tested on: KM12
HOP-92 = tested on: HOP-92
CCRF-CEM = tested on: CCRF-CEM
Malme-3M = tested on: Malme-3M
NCI-H522 = tested on: NCI-H522
M14 = tested on: M14
SW-620 = tested on: SW-620
SK-MEL-5 = tested on: SK-MEL-5
U-251 = tested on: U-251
NCI-H226 = tested on: NCI-H226
SF-295 = tested on: SF-295
RPMI-8226 = tested on: RPMI-8226

Measured: GI50

COc1cc(/C=C2\NC(=O)C3Cc4c(OC)c(C)c(OC)c(OC)c4C2N3C)c(OC)c(C)c1OC (stereo not given)
inactive: SF-539 > 100 µM | TK-10 > 100 µM | SR > 100 µM | HOP-62 > 100 µM | SN12C > 100 µM | OVCAR-8 > 100 µM | KM12 > 100 µM | HOP-92 > 100 µM | CCRF-CEM > 100 µM | Malme-3M > 100 µM | NCI-H522 99.5 µM | M14 > 100 µM | SW-620 > 10 µM | SK-MEL-5 > 100 µM | U-251 > 100 µM | NCI-H226 > 100 µM | SF-295 > 100 µM

CSc1nc2c(nc(N)n2C2OC(CO)C(O)C(O)C2O)c(=O)[nH]1 (stereo not given)
inactive: SF-539 > 100 µM | TK-10 > 100 µM | SR > 100 µM | HOP-62 > 100 µM | SN12C > 100 µM | OVCAR-8 > 100 µM | KM12 > 100 µM | HOP-92 > 100 µM | CCRF-CEM > 100 µM | Malme-3M > 100 µM | NCI-H522 > 100 µM | M14 > 100 µM | SW-620 > 100 µM | SK-MEL-5 > 100 µM | U-251 > 100 µM | NCI-H226 > 100 µM | SF-295 > 100 µM

O=C(Nc1ccccc1)OCc1nc2c([nH]1)C(=O)C=CC2=O
inactive: SF-539 > 100 µM | RPMI-8226 18.7 µM | TK-10 14 µM | SR 19.5 µM | HOP-62 > 100 µM | SN12C 17.2 µM | OVCAR-8 15.5 µM | KM12 15.6 µM | HOP-92 24.6 µM | CCRF-CEM 3.34 µM | Malme-3M 6.4 µM | M14 16 µM | SW-620 2.62 µM | SK-MEL-5 14.3 µM | U-251 12.5 µM | NCI-H226 18.7 µM | SF-295 18.6 µM

C=C(C)[C@@H]1CC[C@]2(COC(C)=O)CC[C@]3(C)[C@H](CC[C@@H]4[C@@]5(C)CC[C@H](OC(C)=O)C(C)(C)[C@@H]5CC[C@]43C)[C@@H]12 [BETULIN DIACETATE]
inactive: SF-539 > 50 µM | RPMI-8226 > 50 µM | SR > 50 µM | HOP-62 > 50 µM | SN12C > 50 µM | OVCAR-8 > 50 µM | HOP-92 > 31.6 µM | CCRF-CEM > 50 µM | NCI-H522 > 50 µM | M14 > 50 µM | SW-620 > 50 µM | SK-MEL-5 > 50 µM | U-251 > 50 µM | NCI-H226 > 50 µM
